The source of these data is US20040147494A1, “Use” (priority 2001, published 2004).

Structures can show the parent of a compound that is named as a salt.

In one assay the target is T1, 11 β-HSD type 1 (Rattus norvegicus, UniProt P16232).
T1 construct: Both the kidneys and livers were homogenised on ice in PBS- sucrose buffer; tissue Harlan Olac, Bicester, Oxon, UK (rats); host or cells: rat liver homogenate supernatant (Wistar rat)
The assay is described as follows: biochemical. It counts as biochemical. Particulars: rat liver cytosol 25 μL, 90 min, 37° C., cortisone (E) to cortisol (F), vs control without inhibitor, means n=2; for inhibition at 10 µM: read-out: % […]→F ± SD, inhibitor 10 μM, read-out: % INHIBITION E→F ± SD; for % INHIBITION E→F ± SD: inhibitor 10 μM.

For a further assay, the target named is T2, 11 β-HSD type 2 (Rattus norvegicus, UniProt P50233).
T2 construct: Both the kidneys and livers were homogenised on ice in PBS- sucrose buffer; tissue Harlan Olac, Bicester, Oxon, UK (rats); host or cells: rat kidney homogenate supernatant (Wistar rat)
T2 sequence (P50233 1-400): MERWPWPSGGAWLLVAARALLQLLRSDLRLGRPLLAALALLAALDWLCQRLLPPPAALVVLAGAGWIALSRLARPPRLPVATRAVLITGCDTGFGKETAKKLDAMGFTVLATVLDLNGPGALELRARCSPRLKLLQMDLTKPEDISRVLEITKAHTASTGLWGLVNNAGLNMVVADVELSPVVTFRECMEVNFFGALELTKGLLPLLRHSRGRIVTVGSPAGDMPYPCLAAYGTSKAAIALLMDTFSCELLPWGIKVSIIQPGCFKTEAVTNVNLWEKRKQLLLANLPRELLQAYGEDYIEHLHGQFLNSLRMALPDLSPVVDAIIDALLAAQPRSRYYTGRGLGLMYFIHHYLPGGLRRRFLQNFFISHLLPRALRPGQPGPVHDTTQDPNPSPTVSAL
The assay is described as follows: biochemical. The conditions noted are these: read-out: % […]→E ± SD, inhibitor 10 μM; rat kidney cytosol 150 μL, 60 min, 37° C.; cortisol (F) to cortisone (E); vs control without inhibitor; means n=2; read-out: % INHIBITION F→E ± SD. On the procedure: Enzymes—Rat livers and rat kidneys were obtained from normal Wistar rats (Harlan Olac, Bicester, Oxon,UK). Both the kidneys and livers were homogenised on ice in PBS- sucrose buffer (1 g/10 ml) using an Ultra-Turrax. After the livers and kidneys were homogenised the homogenate was centrifuged for five minutes at 4000 rpm. The supernatant obtained was removed and stored in glass vials at −20° C. The amount of protein per μl of rat liver and kidney cytosol was determined using the Bradford method.
The same procedure was used for the 11 β-HSD type 2 assay, the conversion F to E, to determine the amount of rat kidney to be used and the incubation time.
In these assays the influence of different inhibitors on the 11 β-HSD activity both in reductive (type 1) and oxidative (type 2) directions were assessed. In the reductive direction E is the substrate and F the product and visa versa in the case of oxidation. The method described here is for the oxidative direction.
The substrate solution contained about 50,000 cpm/ml ^3H—F in PBS-sucrose and 0.5 pM F. 1 ml of the substrate solution was added to each tube, the inhibitors were also added, at a 10 μM concentration, to each tube except to the “control” and “blank” tubes. 150 μL was added to all tubes except to the blanks, this was done to correct for the amount of ^3H[…]. The tubes were incubated for 60 minutes in a mechanically shaken water bath at 37° C. […] After incubation 50 μL of recovery was added to correct for the losses made in the next steps, containing 5000 cpm/50 μL of ^14C-E and 50 μg/50 μL of unlabelled E (to visualise the spot on the TLC-plate). The aqueous mixture was then extracted with 4 ml of ether (2×30 sec cycle, vortex mix). After freezing the aqueous phase, the ether (upper) layer was decanted into smaller tubes and evaporated at 45° C. until completely dry. The residue was then re-dissolved in 6 drops of ether and transferred to a TLC-plate. The TLC-plate was developed in chloroform:methanol (9:1 v/v) solvent system, the TLC-plate ran for about 90 minutes until the solvent front had moved about 18 cm. The position of the product E was visualised under UV-light and cut out from the TLC-plate and put into scintillation vials. Radioactivity was eluted over 5 minutes with 0.5 ml methanol. 0.5 ml of PBS- sucrose and 10 ml of Ecoscint were then added and vortex mixed before counting in the scintillation counter. Before counting the samples, two total activity vials were prepared. These contained 0.5 ml of the substrate solution, 50 μL of the recovery, 0.5 ml of methanol and 10 ml of Ecoscint. These two total activity vials were needed to determine the amount of ^14C-E and ^3H—F added in the beginning to make the calculations.
To look at the percentage of inhibition four different concentrations, 1, 5, 10 and 20 μM, were used. The method for both the rat liver, type 1 the reductive, and rat kidney, type 2 the oxidative, stay the same throughout the entire experiment.
In this experiment the influence of different inhibitors on the conversion E to F and F to E was determined. The reason why inhibition in both directions was examined was to make a comparison between the inhibitors and which type of 11 β-HSD they inhibit more. Thirty-two compounds were screened for their ability to inhibit 11 β-HSD type 1 (E to F) and type 2 (F to E). […] The percent of inhibition was calculated as the percentage of decrease in radio labelled ^3H-E and ^3H—F of product formed, compared with the control activity (the tubes without an inhibitor in it). All the results calculated are means, n=2.

T1 sequence (P16232 whole entry): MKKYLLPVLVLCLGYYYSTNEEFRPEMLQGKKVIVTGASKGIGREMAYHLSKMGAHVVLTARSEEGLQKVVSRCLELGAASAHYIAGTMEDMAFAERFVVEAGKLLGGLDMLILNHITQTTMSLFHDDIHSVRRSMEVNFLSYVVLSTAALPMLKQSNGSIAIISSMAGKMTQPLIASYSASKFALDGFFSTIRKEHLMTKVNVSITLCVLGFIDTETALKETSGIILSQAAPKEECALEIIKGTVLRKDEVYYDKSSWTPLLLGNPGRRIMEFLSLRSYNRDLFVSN

Turning to `CC1(C)C2CC[C@]3(C)C(CC=C4[C@@H]5C[C@@](C)(CO)CC[C@]5(C)CC[C@]43C)[C@@]2(C)CC[C@@H]1O` (stereo partly shown) [STX 350], the inhibition at 10 µM is 13.4 ± 9.63% at 11 β-HSD type 1 and 60.3 ± 3.99% at 11 β-HSD type 2.
As for `CC1(C)[C@@H](O)CC[C@]2(C)[C@H]3C(=O)C=C4[C@@H]5C[C@@](C)(C(=O)OCCc6ccccc6)CC[C@]5(C)CC[C@@]4(C)[C@]3(C)CC[C@@H]12` [STX197, 3β-hydroxy-11-oxo-18β-glycyrrhetinic acid phenylethyl ester], the “% INHIBITION E→F ± SD” value at 11 β-HSD type 1 worked out at 53.0 ± 0.935%.
For `CC1(C)C(=O)CC[C@@]2(C)C1CC[C@]1(C)C2C(=O)C=C2[C@@H]3C[C@@](C)(C(=O)O)CC[C@]3(C)CC[C@]21C` (stereo partly drawn) [STX 347, 3-Oxo-18β-glycerrhetinic acid], the inhibition at 10 µM at 11 β-HSD type 1 amounted to 89.37 ± 0.1%.
Turning to `C[C@]12CCC(=O)C=C1CCC1C2C(O)C[C@]2(C)C(=O)CCC12` (stereo partly drawn) [11β-OH-Androstenedione, reference compound], the inhibition at 10 µM on 11 β-HSD type 1 was 55.2 ± 0.26%; on 11 β-HSD type 2, 40.9 ± 4.67%.
Turning to `CC(=O)C1CCC2C3CCC4=CC(=O)CC[C@]4(C)C3[C@H](O)C[C@]12C` (stereo partly shown) [DG322B, 11-hydroxy-Progesterone], the inhibition at 10 µM at 11 β-HSD type 1 was found to be 32.6 ± 3.75%.
Turning to `CC1(C(=O)O)CCC2(C)CCC3C(=CC(=O)C4C3(C)CCC3C(C)(C)C(OC(=O)CCC(=O)O)CCC34C)C2C1` (stereo not shown) [Carbenoxalone, Carbenoxalone (disodium salt), reference compound], the inhibition at 10 µM at 11 β-HSD type 1 was 52.2 ± 4.8%; at 11 β-HSD type 2, 100%.
For `CC1(C)C2CC[C@]3(C)[C@H](C(=O)C=C4[C@@H]5C[C@@](C)(C(=O)NCc6ccccn6)CC[C@]5(C)CC[C@]43C)[C@@]2(C)CC[C@@H]1O` (stereo partly drawn) [STX 371, 18β-Glycyrrhetinic Acid (pyridin-2-ylmethyl)-amide] the same measures were 57.1 ± 5.6% and 93 ± 2.75%.
Consider `COC(=O)[C@@]1(C)CC[C@]2(C)CC[C@]3(C)C(=CC(=O)[C@@H]4[C@@]5(C)CC[C@H](OCc6ccccc6)C(C)(C)C5CC[C@]43C)[C@@H]2C1` (stereo partly shown) [STX 359], for which the inhibition at 10 µM at 11 β-HSD type 1 is 17.8 ± 2.5%; at 11 β-HSD type 2, 17 ± 3.5%.
On to `CC1(C)[C@@H](O)CC[C@]2(C)[C@H]3C(=O)C=C4[C@H]5C[C@@](C)(C(=O)O)CC[C@]5(C)CC[C@@]4(C)[C@]3(C)CC[C@@H]12` [STX353, 3β-Hydroxy-11-oxo-18α,20β-olean-12-en-29-oic acid, reference compound], for which, at 11 β-HSD type 1, the inhibition at 10 µM was 89 ± 1.49%.
Regarding `COC(=O)[C@@]1(C)CC[C@]2(C)CC[C@]3(C)C(=CC(=O)C4[C@@]5(C)CCC(=O)C(C)(C)C5CC[C@]43C)[C@@H]2C1` (stereo partly drawn) [STX194, Methyl 3-oxo-18β-glycerrhetate], the inhibition at 10 µM on 11 β-HSD type 1 was found to be 65.8 ± 5.69%; on 11 β-HSD type 2, 75 ± 2.93%.
For the compound `CC1(C)C(=O)CC[C@]2(C)C3C(=O)C=C4[C@H]5C[C@@](C)(C(=O)O)CC[C@]5(C)CC[C@@]4(C)[C@]3(C)CC[C@@H]12` (stereo partly drawn) [BLE99005, 3,11-Dioxo-18α-olean-12-en-30-oic acid], the “% INHIBITION E→F ± SD” value at 11 β-HSD type 1 (10 µM) is 86.9 ± 0.882%. At 11 β-HSD type 1, the inhibition at 10 µM is 87%.
On to `CC1(C)C2CC[C@]3(C)C(C(=O)C=C4[C@@H]5C[C@@](C)(CO)CC[C@]5(C)CC[C@]43C)[C@@]2(C)CC[C@@H]1O` (stereo partly shown) [STX 349], for which the inhibition at 10 µM on 11 β-HSD type 1 is 89.7 ± 4.9%; on 11 β-HSD type 2 it was 100 ± 0.49%.
Take `CC1(C)C2CC[C@]3(C)C(C(=O)C=C4[C@@H]5C[C@@](C)(C(=O)OCc6ccccc6)CC[C@]5(C)CC[C@]43C)[C@@]2(C)CC[C@@H]1O` (stereo partly shown) [STX 348]: the results for the inhibition at 10 µM at 11 β-HSD type 1 and on 11 β-HSD type 2 were 63.4 ± 1.45% and 94.77 ± 0.17%, respectively.
With `C[C@]12CCC(=O)C=C1CC[C@@H]1[C@@H]2[C@@H](O)C[C@@]2(C)[C@H]1CC[C@]2(O)C(=O)CO` [Cortisol, reference compound], the values for the inhibition at 10 µM on 11 β-HSD type 1 and at 11 β-HSD type 2 were 49.6 ± 5.87% and 54.7 ± 4.24%, respectively.
In the case of `CC1(C)C2CC[C@]3(C)[C@H](C(=O)C=C4[C@@H]5C[C@@](C)(C(=O)NCc6ccccc6)CC[C@]5(C)CC[C@]43C)[C@@]2(C)CC[C@@H]1O` (stereo partly drawn) [STX 366, 18β-Glycyrrhetinic Acid Benzylamide], the inhibition at 10 µM on 11 β-HSD type 1 came to 85.2 ± 1.09%.
For `CC1(C)C2CC[C@]3(C)[C@H](C(=O)C=C4[C@@H]5C[C@@](C)(C(=O)NCCN6CCOCC6)CC[C@]5(C)CC[C@]43C)[C@@]2(C)CC[C@@H]1O` (stereo partly shown) [STX 372, 18-Glycyrrhetinic Acid (2-morpholin-4-yl-ethyl)-amide], the inhibition at 10 µM on 11 β-HSD type 1 was determined as 19.4 ± 7.81%; on 11 β-HSD type 2, 65.8 ± 20.9%.
As for `COC(=O)[C@@]1(C)CC[C@]2(C)CC[C@]3(C)C(=CCC4[C@@]5(C)CC[C@H](O)C(C)(C)C5CC[C@]43C)[C@@H]2C1` (stereo partly shown) [STX 299], the inhibition at 10 µM on 11 β-HSD type 1 was 20.2 ± 1.89%; at 11 β-HSD type 2 it was 19.5 ± 1.66%.
For `CO[C@H]1CC[C@@]2(C)C(CC[C@]3(C)C2C(=O)C=C2[C@@H]4C[C@@](C)(C(=O)O)CC[C@]4(C)CC[C@]23C)C1(C)C` (stereo partly drawn) [STX195a, 3β-Methoxy-11-oxo-18β-glycerrhetinic acid], the inhibition at 10 µM came to 53 ± 1.02% on 11 β-HSD type 1 and 90.3 ± 1.98% on 11 β-HSD type 2.
On the same counts, the results for `CC(=O)O[C@H]1CC[C@@]2(C)C(CC[C@]3(C)[C@@H]2C(=O)C=C2[C@@H]4C[C@@](C)(C(=O)NCc5ccccc5)CC[C@]4(C)CC[C@]23C)C1(C)C` (stereo partly drawn) [STX 367, 3β-Acetoxy-18β-Glycyrrhetinic Acid Benzylamide] are 36.2 ± 3.69% and 27.3 ± 2.99%.
For the compound `CCO[C@H]1CC[C@@]2(C)C(CC[C@]3(C)C2C(=O)C=C2[C@@H]4C[C@@](C)(C(=O)O)CC[C@]4(C)CC[C@]23C)C1(C)C` (stereo partly drawn) [STX196a, 3β-Ethoxy-11-oxo-18β-glycerrhetinic acid], the inhibition at 10 µM is 55 ± 0.022% on 11 β-HSD type 1 and 93.9 ± 1.77% on 11 β-HSD type 2.
On the same counts, the results for `CC(C)(C)OC(=O)[C@@]1(C)CC[C@]2(C)CC[C@]3(C)C(=CC(=O)C4[C@@]5(C)CC[C@H](O)C(C)(C)C5CC[C@]43C)[C@@H]2C1` (stereo partly shown) [STX 298] are 50.6 ± 4.43% and 22.6 ± 12.9%.
For `COC(=O)[C@@]1(C)CC[C@]2(C)CC[C@]3(C)C(=CC(=O)[C@@H]4[C@@]5(C)CC[C@H](OCc6ccc(C(C)(C)C)cc6)C(C)(C)C5CC[C@]43C)[C@@H]2C1` (stereo partly shown) [STX 360] the same measures were 14.7 ± 2.4% and 26.4 ± 11.6%.
Turning to `CC1(C)[C@@H](O)CC[C@]2(C)[C@H]3C(=O)C=C4[C@@H]5C[C@@](C)(C(=O)O)CC[C@]5(C)CC[C@@]4(C)[C@]3(C)CC[C@@H]12` [STX352, 3β-Hydroxy-11-oxo-18β,20β-olean-12-en-29-oic acid, reference compound], the inhibition at 10 µM at 11 β-HSD type 1 stood at 85.2 ± 3.69%.
